Laboratory results: patent US20020183519A1, “Antithrombotic carboxylic acid amides” (priority 2001, published 2002)

target: T1, human factor Xa (Homo sapiens, UniProt P00742); test: Inhibition of factor Xa, enzyme-kinetic measurement with chromogenic substrate; type: biochemical; details: human factor Xa (Roche) 0.175 U/ml, substrate Chromozym X 200 μMol/l, pH 8.0, 37° C., 405 nm
T1 construct: released from the colourless chromogenic substrate by human factor Xa; purchased Roche
Procedure: Method: Enzyme-kinetic measurement with chromogenic substrate. The quantity of p-nitroaniline (pNA) released from the colourless chromogenic substrate by human factor Xa is determined photometrically at 405 nm. It is proportional to the activity of the enzyme used. The inhibition of the enzyme activity by the test substance (in relation to the solvent control) is determined at various concentrations of test substance and from this the IC50 is calculated, as the concentration which inhibits the factor Xa used by 50%.
Material: Tris(hydroxymethyl)-aminomethane buffer (100 mmol) and sodium chloride (150 mmol), pH 8.0
Factor Xa (Roche), spec. activity: 10 U/0.5 ml, final concentration: 0.175 U/ml for each reaction mixture
Substrate Chromozym X (Roche), final concentration: 200 μMol/l for each reaction mixture
Procedure: 10 μl of a 23.5-times concentrated starting solution of the test substance or solvent (control), 175 μl of tris(hydroxymethyl)-aminomethane buffer and 25 μl of a 1.65 U/ml Factor Xa working solution are incubated for 10 minutes at 37° C. After the addition of 25 μl of Chromozym X working solution ([…]) the sample is measured in a photometer (SpectraMax 250) at 405 nm for 150 seconds at 37° C.
1. Determining the maximum increase (deltaOD/minutes) over 3 measuring points.
2. Determining the % inhibition based on the solvent control.
3. Plotting a dosage/activity curve (% inhibition vs substance concentration).
4. Determining the IC50 by interpolating the X value (substance concentration) of the dosage/activity curve at Y=50% inhibition.

T1 sequence (P00742 235-488 limits assumed): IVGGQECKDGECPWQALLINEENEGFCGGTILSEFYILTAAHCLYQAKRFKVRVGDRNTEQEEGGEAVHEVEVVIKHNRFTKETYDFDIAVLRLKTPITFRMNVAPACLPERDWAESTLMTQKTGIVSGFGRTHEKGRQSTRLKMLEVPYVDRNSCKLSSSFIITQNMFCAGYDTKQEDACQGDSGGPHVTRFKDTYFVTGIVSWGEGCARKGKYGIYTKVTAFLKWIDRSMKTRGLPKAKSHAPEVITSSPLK
T1 sequence (P00742 41-179 partner limits assumed): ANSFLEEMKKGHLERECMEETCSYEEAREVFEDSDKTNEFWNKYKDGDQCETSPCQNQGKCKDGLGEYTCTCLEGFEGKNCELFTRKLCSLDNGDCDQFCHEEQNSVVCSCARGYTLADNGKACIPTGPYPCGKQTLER

SMILES | IC50
Cc1cc(NC(=O)Cc2cc(C(=N)N)ccc2O)ccc1-n1c(N2CCCC2)nc2ccccc21 [(1)] | 0.14 µM
Cc1cc(NC(=O)Cc2cc(C(=N)N)ccc2O)ccc1-n1cnc2c1CCCC2 [(2)] | 0.081 µM
Cc1cc(NC(=O)Cc2cc(C(=N)N)ccc2O)ccc1-c1ncnc2c1CCC2 [(3)] | 0.062 µM
CNC(=O)c1nn(-c2ccc(C(=O)NCc3cc(C(=N)N)ccc3O)cc2C(F)(F)F)c2c1CCC2 [(5)] | 0.016 µM
N=C(N)c1ccc(O)c(CNC(=O)c2ccc(-n3nc(CN)c4c3CCC4)c(C(F)(F)F)c2)c1 [(6)] | 0.007 µM
CCOC(=O)CC(NC(=O)c1ccc(-n2cnc3c2CCCC3)c(C(F)(F)F)c1)c1cccc(C(=N)N)c1 (stereo not drawn) [(8)] | 0.028 µM

Second part, the molecule after the results:

IC50 | SMILES
0.015 µM | Cc1nn(-c2ccc(C(=O)NCc3cc(C(=N)N)ccc3O)cc2C(F)(F)F)c2c1CCC2 [(4)]
0.0075 µM | CCOC(=O)CC(NC(=O)c1ccc(-n2nc(CN)c3c2CCC3)c(C(F)(F)F)c1)c1cccc(C(=N)N)c1 (stereo not drawn) [(7)]
0.024 µM | COC(=O)c1nn(-c2ccc(C(=O)NCc3cc(C(=N)N)ccc3O)cc2C(F)(F)F)c2c1CCC2 [(9)]
